Test results published in ChEMBL document CHEMBL4396887, “Five-Membered N-Heterocyclic Scaffolds as Novel Amino Bioisosteres at γ-Aminobutyric Acid (GABA) Type A Receptors and GABA Transporters” (J Med Chem, 2019).

Experiments:
[1] = target: GABA-A receptor; alpha-1/beta-2/gamma-2 (Homo sapiens) (UniProt P14867+P47870+P18507); test: Agonist activity at recombinant human GABA-A alpha1beta2gamma2S receptor transiently expressed in human tsA201 cells assessed as GABA-induced maximum response incubated for 30 mins and measured up to 90 secs by FMP dye based FLIPR membrane potential blue assay relative to GABA; format: cell-based
[2] = target: T1, Sodium- and chloride-dependent GABA transporter 3 (Homo sapiens, UniProt P48066); test: Inhibition of human GAT3 expressed in Flp-In CHO cells assessed as reduction in [3H]GABA uptake incubated for 3 mins by liquid scintillation counting method; format: cell-based; details: read-out: IC50
T1 sequence (P48066 whole entry): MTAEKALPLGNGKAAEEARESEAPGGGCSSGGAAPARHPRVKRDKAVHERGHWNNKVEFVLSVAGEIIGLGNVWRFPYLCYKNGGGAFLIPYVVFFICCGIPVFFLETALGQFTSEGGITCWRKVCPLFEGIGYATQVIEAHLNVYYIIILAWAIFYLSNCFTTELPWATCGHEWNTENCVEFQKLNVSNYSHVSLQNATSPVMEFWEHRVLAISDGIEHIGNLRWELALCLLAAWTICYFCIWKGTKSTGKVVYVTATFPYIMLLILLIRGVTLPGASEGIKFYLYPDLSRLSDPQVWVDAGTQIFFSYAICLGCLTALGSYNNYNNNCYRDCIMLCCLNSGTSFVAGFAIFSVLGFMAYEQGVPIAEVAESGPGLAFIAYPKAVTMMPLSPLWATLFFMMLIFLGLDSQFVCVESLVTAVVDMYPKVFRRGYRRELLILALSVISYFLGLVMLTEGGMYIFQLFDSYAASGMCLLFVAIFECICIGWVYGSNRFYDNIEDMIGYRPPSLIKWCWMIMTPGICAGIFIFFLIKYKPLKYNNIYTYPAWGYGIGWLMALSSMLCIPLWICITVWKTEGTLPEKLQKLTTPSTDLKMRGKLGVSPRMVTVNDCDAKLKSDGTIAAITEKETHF

[3] = target: T2, Sodium- and chloride-dependent GABA transporter 2 (Homo sapiens, UniProt Q9NSD5); test: Inhibition of human GAT2 expressed in Flp-In CHO cells assessed as reduction in [3H]GABA uptake incubated for 3 mins by liquid scintillation counting method; format: cell-based
T2 sequence (Q9NSD5 whole entry): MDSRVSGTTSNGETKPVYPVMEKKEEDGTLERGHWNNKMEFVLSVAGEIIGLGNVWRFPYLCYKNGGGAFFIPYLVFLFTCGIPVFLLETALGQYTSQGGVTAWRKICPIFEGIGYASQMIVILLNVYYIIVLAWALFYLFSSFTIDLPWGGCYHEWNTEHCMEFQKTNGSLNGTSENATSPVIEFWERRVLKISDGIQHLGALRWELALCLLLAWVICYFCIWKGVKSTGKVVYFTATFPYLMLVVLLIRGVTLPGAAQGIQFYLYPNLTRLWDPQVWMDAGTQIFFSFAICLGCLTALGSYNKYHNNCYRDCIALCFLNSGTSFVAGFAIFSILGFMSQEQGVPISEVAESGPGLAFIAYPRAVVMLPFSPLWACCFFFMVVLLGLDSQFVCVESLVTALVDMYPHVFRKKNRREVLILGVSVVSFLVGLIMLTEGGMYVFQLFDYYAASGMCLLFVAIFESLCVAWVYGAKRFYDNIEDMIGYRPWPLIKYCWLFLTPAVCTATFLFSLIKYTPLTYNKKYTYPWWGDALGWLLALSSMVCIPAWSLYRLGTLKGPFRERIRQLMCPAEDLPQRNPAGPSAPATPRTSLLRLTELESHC

[4] = target: T3, Gamma-aminobutyric acid receptor subunit rho-1 (Homo sapiens, UniProt P24046); test: Agonist activity at recombinant human GABA-A rho-1 receptor transiently expressed in human tsA201 cells assessed as GABA-induced maximum response incubated for 30 mins and measured up to 90 secs by FMP dye based FLIPR membrane potential blue assay relative to GABA; format: cell-based
[5] = target: Gamma-aminobutyric acid receptor subunit alpha-5/beta-2/gamma-2 (Homo sapiens) (UniProt P47870+P18507+P31644); test: Agonist activity at recombinant human GABA-A alpha5beta2gamma2S receptor transiently expressed in human tsA201 cells assessed as GABA-induced maximum response incubated for 30 mins and measured up to 90 secs by FMP dye based FLIPR membrane potential blue assay relative to GABA; format: cell-based
[6] = target: T3, Gamma-aminobutyric acid receptor subunit rho-1; test: Agonist activity at recombinant human GABA-A rho-1 receptor transiently expressed in human tsA201 cells incubated for 30 mins and measured up to 90 secs by FMP dye based FLIPR membrane potential blue assay; format: cell-based; details: read-out: EC50
cells = format: cell-based; details: Homo sapiens, tsA201, 0.5 h
[7] = target: T4, GABA-A receptor; alpha-1/beta-2/gamma-2 (Homo sapiens, UniProt P14867+P18507+P47870); test: Agonist activity at recombinant human GABA-A alpha1beta2gamma2S receptor transiently expressed in human tsA201 cells incubated for 30 mins and measured up to 90 secs by FMP dye based FLIPR membrane potential blue assay; format: cell-based
T4 sequence (P14867 whole entry): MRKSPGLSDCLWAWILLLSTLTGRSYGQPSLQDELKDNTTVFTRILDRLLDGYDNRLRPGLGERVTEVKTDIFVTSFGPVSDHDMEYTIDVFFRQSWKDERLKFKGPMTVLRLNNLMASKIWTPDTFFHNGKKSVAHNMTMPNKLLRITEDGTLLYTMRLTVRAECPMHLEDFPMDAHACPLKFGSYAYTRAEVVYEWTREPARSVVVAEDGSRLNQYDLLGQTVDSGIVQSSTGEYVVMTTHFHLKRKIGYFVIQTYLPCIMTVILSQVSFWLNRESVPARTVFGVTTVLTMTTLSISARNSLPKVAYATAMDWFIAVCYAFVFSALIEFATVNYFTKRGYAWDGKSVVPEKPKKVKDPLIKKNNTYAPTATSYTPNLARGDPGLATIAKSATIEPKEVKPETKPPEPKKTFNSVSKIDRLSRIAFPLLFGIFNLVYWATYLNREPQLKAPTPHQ
T4 sequence (P47870 whole entry): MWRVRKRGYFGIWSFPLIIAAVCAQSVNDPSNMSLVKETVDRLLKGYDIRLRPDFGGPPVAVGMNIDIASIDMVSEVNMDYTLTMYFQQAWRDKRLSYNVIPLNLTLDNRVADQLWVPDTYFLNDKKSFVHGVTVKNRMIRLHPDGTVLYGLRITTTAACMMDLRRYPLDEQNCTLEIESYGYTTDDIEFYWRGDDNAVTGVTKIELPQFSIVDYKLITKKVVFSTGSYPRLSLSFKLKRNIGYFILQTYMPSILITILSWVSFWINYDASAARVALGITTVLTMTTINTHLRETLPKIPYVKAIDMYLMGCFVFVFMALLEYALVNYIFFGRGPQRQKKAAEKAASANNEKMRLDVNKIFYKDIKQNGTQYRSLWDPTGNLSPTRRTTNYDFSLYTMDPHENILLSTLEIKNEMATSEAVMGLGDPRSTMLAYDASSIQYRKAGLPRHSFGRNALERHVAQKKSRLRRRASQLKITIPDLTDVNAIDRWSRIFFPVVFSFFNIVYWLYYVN
T4 sequence (P18507 whole entry): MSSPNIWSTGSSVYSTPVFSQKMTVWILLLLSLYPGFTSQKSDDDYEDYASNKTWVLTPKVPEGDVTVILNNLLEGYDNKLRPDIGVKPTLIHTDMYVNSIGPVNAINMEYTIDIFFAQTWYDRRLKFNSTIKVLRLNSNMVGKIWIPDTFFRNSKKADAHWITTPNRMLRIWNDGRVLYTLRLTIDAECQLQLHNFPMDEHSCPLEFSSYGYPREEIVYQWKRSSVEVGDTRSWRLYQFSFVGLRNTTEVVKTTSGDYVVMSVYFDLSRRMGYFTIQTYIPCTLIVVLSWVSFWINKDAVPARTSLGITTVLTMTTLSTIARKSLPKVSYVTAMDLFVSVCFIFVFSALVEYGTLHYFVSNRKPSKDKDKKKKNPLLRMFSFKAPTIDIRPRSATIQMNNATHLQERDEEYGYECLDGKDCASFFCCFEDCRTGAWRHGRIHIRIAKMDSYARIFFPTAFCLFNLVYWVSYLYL

[8] = target: Gamma-aminobutyric acid receptor subunit alpha-4/beta-2/gamma-2 (Homo sapiens, UniProt P18507+P47870+P48169); test: Agonist activity at recombinant human GABA-A alpha4beta2gamma2S receptor transiently expressed in human tsA201 cells incubated for 30 mins and measured up to 90 secs by FMP dye based FLIPR membrane potential blue assay; format: cell-based
Homo sapiens = species: Homo sapiens; test: Agonist activity at recombinant human GABA-A alpha3beta2gamma2S receptor transiently expressed in human tsA201 cells assessed as GABA-induced maximum response incubated for 30 mins and measured up to 90 secs by FMP dye based FLIPR membrane potential blue assay relative to GABA; format: cell-based
[9] = target: Gamma-aminobutyric acid receptor subunit alpha-4/beta-2/gamma-2 (Homo sapiens, UniProt P47870+P18507+P48169); test: Agonist activity at recombinant human GABA-A alpha4beta2gamma2S receptor transiently expressed in human tsA201 cells assessed as GABA-induced maximum response incubated for 30 mins and measured up to 90 secs by FMP dye based FLIPR membrane potential blue assay relative to GABA; format: cell-based
[10] = target: GABA-A receptor; anion channel; test: Displacement of [3H]muscimol from GABA(A) receptor in Sprague-Dawley rat cortical synaptic membranes by liquid scintillation counting
[11] = target: T5, Gamma-aminobutyric acid receptor subunit alpha-5/beta-2/gamma-2 (Homo sapiens, UniProt P18507+P31644+P47870); test: Agonist activity at recombinant human GABA-A alpha5beta2gamma2S receptor transiently expressed in human tsA201 cells incubated for 30 mins and measured up to 90 secs by FMP dye based FLIPR membrane potential blue assay; format: cell-based
T5 sequence (P47870 whole entry): T4 sequence (P47870 whole entry)
T5 sequence (P18507 whole entry): T4 sequence (P18507 whole entry)
T5 sequence (P31644 whole entry): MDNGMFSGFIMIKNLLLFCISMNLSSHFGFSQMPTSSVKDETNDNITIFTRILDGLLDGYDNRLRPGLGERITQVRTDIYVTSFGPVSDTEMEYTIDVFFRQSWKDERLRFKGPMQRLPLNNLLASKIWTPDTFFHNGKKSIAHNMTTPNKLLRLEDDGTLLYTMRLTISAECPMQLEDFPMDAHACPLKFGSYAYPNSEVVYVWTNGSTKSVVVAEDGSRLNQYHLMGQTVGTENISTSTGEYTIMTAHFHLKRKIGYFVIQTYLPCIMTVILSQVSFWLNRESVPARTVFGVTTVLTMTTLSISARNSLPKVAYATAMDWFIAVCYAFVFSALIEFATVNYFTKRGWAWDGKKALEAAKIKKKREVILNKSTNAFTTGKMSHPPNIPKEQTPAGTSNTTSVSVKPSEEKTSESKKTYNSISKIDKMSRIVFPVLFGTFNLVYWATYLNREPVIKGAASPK

[12] = target: Sodium- and chloride-dependent GABA transporter 1 (Homo sapiens, UniProt P30531); test: Inhibition of human GAT1 expressed in Flp-In CHO cells assessed as reduction in [3H]GABA uptake at 100 uM incubated for 3 mins by liquid scintillation counting method relative to control; format: cell-based
[13] = target: T6, Sodium- and chloride-dependent betaine transporter (Homo sapiens) (UniProt P48065); test: Inhibition of human BGT1 expressed in Flp-In CHO cells assessed as reduction in [3H]GABA uptake at 100 uM incubated for 3 mins by liquid scintillation counting method relative to control; format: cell-based
T6 sequence (whole entry): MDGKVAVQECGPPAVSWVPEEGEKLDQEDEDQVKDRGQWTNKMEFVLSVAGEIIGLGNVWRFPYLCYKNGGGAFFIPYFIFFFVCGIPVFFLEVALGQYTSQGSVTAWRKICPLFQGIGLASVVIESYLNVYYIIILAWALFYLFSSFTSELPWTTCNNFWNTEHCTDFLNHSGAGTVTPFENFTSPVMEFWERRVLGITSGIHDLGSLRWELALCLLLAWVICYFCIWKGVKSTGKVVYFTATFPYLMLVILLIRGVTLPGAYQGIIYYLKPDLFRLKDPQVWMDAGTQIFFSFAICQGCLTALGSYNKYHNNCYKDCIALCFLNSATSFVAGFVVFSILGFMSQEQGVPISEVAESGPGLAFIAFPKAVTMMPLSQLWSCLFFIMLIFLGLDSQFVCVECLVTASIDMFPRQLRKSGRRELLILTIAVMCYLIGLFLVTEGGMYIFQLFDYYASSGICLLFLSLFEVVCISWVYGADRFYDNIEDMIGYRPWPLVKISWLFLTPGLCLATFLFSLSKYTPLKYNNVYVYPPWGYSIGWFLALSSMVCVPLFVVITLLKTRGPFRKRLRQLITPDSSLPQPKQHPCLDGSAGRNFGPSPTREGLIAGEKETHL

[14] = target: T7, Sodium- and chloride-dependent GABA transporter 3 (Homo sapiens) (UniProt P48066); test: Inhibition of human GAT3 expressed in Flp-In CHO cells assessed as reduction in [3H]GABA uptake at 100 uM incubated for 3 mins by liquid scintillation counting method relative to control; format: cell-based
T7 sequence (whole entry): T1 sequence (P48066 whole entry)

[15] = target: T8, Sodium- and chloride-dependent GABA transporter 2 (Homo sapiens) (UniProt Q9NSD5); test: Inhibition of human GAT2 expressed in Flp-In CHO cells assessed as reduction in [3H]GABA uptake at 100 uM incubated for 3 mins by liquid scintillation counting method relative to control; format: cell-based
T8 sequence (whole entry): T2 sequence (Q9NSD5 whole entry)

T3 sequence (P24046 whole entry): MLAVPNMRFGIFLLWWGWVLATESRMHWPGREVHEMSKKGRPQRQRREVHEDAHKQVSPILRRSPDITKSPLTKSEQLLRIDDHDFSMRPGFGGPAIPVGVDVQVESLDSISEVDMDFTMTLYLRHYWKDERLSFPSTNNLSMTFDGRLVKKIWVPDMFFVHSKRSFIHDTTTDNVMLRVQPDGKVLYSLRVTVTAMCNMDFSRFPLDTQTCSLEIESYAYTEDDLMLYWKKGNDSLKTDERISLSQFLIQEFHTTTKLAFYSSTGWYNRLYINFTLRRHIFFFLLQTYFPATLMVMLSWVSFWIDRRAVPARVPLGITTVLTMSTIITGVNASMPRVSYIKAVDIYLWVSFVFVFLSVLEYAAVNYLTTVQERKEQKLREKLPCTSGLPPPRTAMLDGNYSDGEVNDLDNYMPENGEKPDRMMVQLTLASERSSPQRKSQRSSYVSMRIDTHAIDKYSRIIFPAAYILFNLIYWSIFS
Sequence of Gamma-aminobutyric acid receptor subunit alpha-4/beta-2/gamma-2 (Homo sapiens, UniProt P18507+P47870+P48169) (P48169 whole entry, one chain of several): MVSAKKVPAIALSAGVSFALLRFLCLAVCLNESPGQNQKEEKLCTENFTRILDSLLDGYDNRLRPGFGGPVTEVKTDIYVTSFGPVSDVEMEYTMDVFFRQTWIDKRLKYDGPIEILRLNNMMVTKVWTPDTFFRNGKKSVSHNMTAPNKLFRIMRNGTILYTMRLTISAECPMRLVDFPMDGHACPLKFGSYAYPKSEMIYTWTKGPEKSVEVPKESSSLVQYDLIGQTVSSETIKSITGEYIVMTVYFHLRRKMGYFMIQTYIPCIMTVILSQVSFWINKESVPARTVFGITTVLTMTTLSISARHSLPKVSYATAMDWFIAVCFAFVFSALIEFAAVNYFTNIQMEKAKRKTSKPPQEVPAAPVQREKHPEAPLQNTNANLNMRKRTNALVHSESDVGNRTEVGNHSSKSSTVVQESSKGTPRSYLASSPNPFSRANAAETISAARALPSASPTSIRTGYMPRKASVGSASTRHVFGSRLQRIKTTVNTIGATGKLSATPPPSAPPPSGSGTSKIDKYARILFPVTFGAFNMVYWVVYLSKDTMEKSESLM
Sequence of Sodium- and chloride-dependent GABA transporter 1 (P30531 whole entry, looked up): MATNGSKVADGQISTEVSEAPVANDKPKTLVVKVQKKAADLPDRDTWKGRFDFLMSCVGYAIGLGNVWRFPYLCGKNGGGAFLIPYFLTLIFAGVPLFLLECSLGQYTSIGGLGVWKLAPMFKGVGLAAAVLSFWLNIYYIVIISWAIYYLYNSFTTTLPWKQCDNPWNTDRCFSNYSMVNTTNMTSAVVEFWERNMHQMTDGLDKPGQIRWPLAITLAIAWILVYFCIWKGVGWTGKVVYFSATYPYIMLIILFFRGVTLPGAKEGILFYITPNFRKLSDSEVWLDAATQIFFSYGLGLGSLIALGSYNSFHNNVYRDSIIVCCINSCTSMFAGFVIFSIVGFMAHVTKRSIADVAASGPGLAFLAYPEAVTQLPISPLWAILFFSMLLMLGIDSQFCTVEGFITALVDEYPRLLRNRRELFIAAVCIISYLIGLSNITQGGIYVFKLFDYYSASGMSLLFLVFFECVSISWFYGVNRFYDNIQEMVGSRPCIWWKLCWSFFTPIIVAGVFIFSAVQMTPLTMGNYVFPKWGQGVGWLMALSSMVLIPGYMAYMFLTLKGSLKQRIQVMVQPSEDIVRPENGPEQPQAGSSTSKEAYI

SMILES	Rmax [1] [%]	IC50 [2] [nM]	IC50 [3] [nM]	Rmax [4] [%]	Rmax [5] [%]	EC50 [6] [nM]	EC50 (cells; read-out: EC50) [nM]	EC50 (cells; read-out: pEC50 (converted)) [nM]	EC50 [7] [nM]	EC50 ([8]; read-out: EC50) [nM]	EC50 ([8]; read-out: pEC50 (converted)) [nM]	Rmax (Homo sapiens) [%]	Rmax [9] [%]	Ki [10] [nM]	EC50 [11] [nM]	inhibition [12] [%]	inhibition [13] [%]	inhibition [14] [%]	inhibition [15] [%]
NCCCC(=O)O [GAMMA-AMINOBUTYRIC ACID]	100	11000	26000	–	–	–	–	–	–	–	–	–	–	–	–	–	–	–	–
NC1=N[C@H](CC(=O)O)CS1	97	–	–	75	104	5400	370	372	1500	590	5890	98	105	59	120	–	–	–	–
CC(C(=O)O)C1CSC(N)=N1 (stereo in doubt; l-10a)	69	–	–	63	97	–	–	–	–	–	–	83	32	–	–	> 30	> 30	> 30	> 30
